Structures are written as SMILES.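 The compound was tested at five concentrations on cells cultured in 96-well plates, with a 48-hour exposure period. At the GI50, growth is halved.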 Calls of active or inactive are those of the source. Rule as the data show it: active = GI50 up to about 1.1 µM and inactive = higher.

Here are results for four molecules from ChEMBL document CHEMBL1201862, “PubChem BioAssay data set” (2004).

Among the test systems are Malme-3M; SR; UACC-257; SK-OV-3; PC-3; MDA-N; MOLT-4; SNB-75; NCI-H522; HCT-116; OVCAR-8; T47D; COLO 205; SN12C; SF-295; EKVX; OVCAR-4; MDA-MB-231; A549.
Holding throughout (test): growth of human tumour cells (NCI), 48 h

Consider `c1csc(-c2ccc(-c3cccs3)c3nsnc23)c1`, for which the GI50 is > 39.1 µM (inactive) in the assay with Malme-3M; 6.47 µM (inactive) with SR; > 65 µM (inactive) in the assay on UACC-257; > 49.7 µM (inactive) with SK-OV-3; > 54 µM (inactive) with PC-3; 17.9 µM (inactive) with MDA-N. Besides, the GI50 is 8.89 µM (inactive) with MOLT-4; 19.7 µM (inactive) with SNB-75; > 100 µM (inactive) in the assay on NCI-H522; 19.8 µM (inactive) with HCT-116; 19.7 µM (inactive) with OVCAR-8; 0.141 µM (active) in the assay on T47D. Further, the GI50 in the assay with COLO 205 was 6.56 µM (inactive); in the assay with SN12C, > 60.3 µM (inactive); with SF-295, 42.3 µM (inactive); in the assay with EKVX it was 2.23 µM (inactive); with OVCAR-4 it was 0.608 µM (active); in the assay with MDA-MB-231 it was 22.4 µM (inactive). Further, in the assay with A549, the GI50 is 33.9 µM (inactive).
With `COC(=O)[C@H](C)N(C)C(=O)[C@H](C)N1[C@@H](c2ccccc2)COC1(C)C`, the GI50 with Malme-3M, in the assay with SR, in the assay on UACC-257, with SK-OV-3, in the assay on PC-3 and with MDA-N was > 100 µM (inactive) each time. Besides, the GI50 in the assay with MOLT-4 is > 100 µM (inactive); in the assay on SNB-75, 92.7 µM (inactive); with NCI-H522 it was > 100 µM (inactive); in the assay with HCT-116 it was > 100 µM (inactive); in the assay on OVCAR-8, > 100 µM (inactive); in the assay with T47D it was > 100 µM (inactive). Besides, the GI50 in the assay with COLO 205, in the assay on SF-295, in the assay on EKVX, in the assay on OVCAR-4, in the assay on MDA-MB-231 and with A549 was > 100 µM (inactive) in each case.
As for `CC(=O)C(N1CCCCC1)C(O)(C(F)(F)F)C(F)(F)F` (stereo not drawn), the GI50 in the assay on Malme-3M is > 100 µM (inactive); in the assay on SR, > 100 µM (inactive); with UACC-257, > 100 µM (inactive); with SK-OV-3 it was > 100 µM (inactive); with PC-3, 36.6 µM (inactive); in the assay with MDA-N, > 100 µM (inactive). Besides, the GI50 was 24 µM (inactive) in the assay on MOLT-4; 33.4 µM (inactive) in the assay with SNB-75; 64 µM (inactive) with NCI-H522; 58.3 µM (inactive) in the assay on HCT-116; > 100 µM (inactive) in the assay on OVCAR-8; 43.9 µM (inactive) in the assay on T47D. The GI50 in the assay with COLO 205, with SF-295, in the assay on EKVX, in the assay on OVCAR-4, in the assay with MDA-MB-231 and in the assay with A549 was > 100 µM (inactive) each time.
`CSC1=NN(c2ccccc2)C(=O)C1=C(SC)SC`: the GI50 is 11.2 µM (inactive) with Malme-3M; 24 µM (inactive) in the assay with SR; 16 µM (inactive) with UACC-257; 31.1 µM (inactive) with SK-OV-3; 15.1 µM (inactive) with PC-3; 30.7 µM (inactive) in the assay with MDA-N. For the same molecule, the GI50 in the assay on MOLT-4 was 26 µM (inactive); in the assay on SNB-75, 27.4 µM (inactive); in the assay on NCI-H522, 2.44 µM (inactive); in the assay with HCT-116, 16.7 µM (inactive); with OVCAR-8, 21.5 µM (inactive); in the assay with T47D, 18.2 µM (inactive). Moreover, the GI50 is 13.2 µM (inactive) with COLO 205; 28.4 µM (inactive) in the assay with SN12C; 27.7 µM (inactive) in the assay on EKVX; 19.4 µM (inactive) in the assay on OVCAR-4; 14.3 µM (inactive) in the assay on MDA-MB-231; 20 µM (inactive) in the assay with A549.
